The numbers were not newly measured in US6455557B1 (Elan Pharmaceuticals, Inc., priority 2001, dated 2002), which cites them from elsewhere.

Test in data set [1]: not given
The source holds these as a separate data set.

Test in data set [2]: not given
The source holds these as a separate data set.

A further data set has as its system plasma proteins. Conditions: independent of concentration over the therapeutic range.
Setting [3] is: oral administration, tablet formulation.

Like-named read-outs stand apart in the source and are kept apart here.

Consider `Clc1cccc(Cl)c1N=C1NCCN1` [clonidine], for which the “Efficacy in treating spastic conditions” value (human, in vivo) is “ineffective”.

As to `Clc1ccc2nsnc2c1NC1=NCCN1` [tizanidine, 5-chloro-4-(2-imidazolin-2-ylamino)-2,1,3-benzothiadiazole], for the setting “patients”, the “Muscle strength, as assessed by objective means” value is “not to be adversely affected”; the “Spasm frequency and clonus” value is on record as “reduced”; the “Subjective muscle weakness compared with baclofen or diazepam recipients” value is “reported less often”. In addition, for the setting “some studies”, the “Time of maximum anti-spastic effects after administration” value was no more than 2 h. Besides, in data set [1] (in vivo), the “Fraction of an administered dose metabolized” value is recorded as “approximately 95%”. For the same compound, the “Mean steady state volume of distribution” value in data set [1] (intravenous administration, healthy adult volunteers) was 2.4 L/kg. Also, the Absolute oral bioavailability result in data set [1] (oral) is on record as “approximately 40%”. Also, in data set [1] (setting [3]), the Half-life result is listed as “approximately 2.5 hours” and the “Time of peak plasma concentrations after dosing” value was 1.5 h. The “Dose linearity of pharmacokinetics” value in data set [1] (over a dose of 1 to 20 mg) is recorded as “linear pharmacokinetics”. Further, in data set [1] (tablet formulation, with food), the “Extent of tizanidine absorption with food” value is “not affected”, the “Increase of Cmax by food” value was “approximately one-third” and the “Shortening of time to peak concentration by food” value is recorded as “approximately 40 minutes”. The “Sedation cases rated as severe” value in data set [2] (multiple dose, controlled clinical studies) is given as 10%. For the same compound, the “Patients reporting sedation as an adverse event” value in data set [2] (multiple dose, controlled clinical studies, any dose) was 48%. For the same compound, the “Patients continuing to report drowsiness 6 hours following dosing” value in data set [2] (single dose of 8 mg) is given as 13%. In addition, in data set [2] (single dose of 16 mg), the “Patients continuing to report drowsiness 6 hours following dosing” value is recorded as 51%. In data set [2] (single dose study), the “Onset of drowsiness following dosing” value was 30 min and the “Peak of drowsiness following dosing” value is 1.5 h. Further, the “Patients reporting that they were drowsy during the 6 hour study” value in data set [2] (single dose study, 8 mg) is 76%. For the same compound, the “Patients reporting that they were drowsy during the 6 hour study” value in data set [2] (single dose study, 16 mg) is 92%. Moreover, the “Bound to plasma proteins” value in the data set on plasma proteins is on record as “approximately 30%”.
